Values after ≈ are worked out from the molar mass of the structure shown. Where two headings read alike, the source gives them in different places.
Key:
[1] = system: Sphaerophorus necrophorus (Sn-1); assay: MIC against anaerobic bacteria; assay type: cell-based; conditions: Fusobacterium necrophorum, 18 h; Table 4; GAM Medium, pH 7
[2] = system: Streptococcus pneumoniae (Dp-4); assay: MIC, two-fold agar dilution; assay type: cell-based; conditions: 18 h, Table 3, GC agar, 10^-2 dilution
[3] = system: Klebsiella pneumoniae (Kp-33), AAC(3)-3; assay: MIC, two-fold agar dilution; assay type: cell-based; conditions: 18 h, Table 3, Mueller-Hinton agar, 10^-4 dilution, enzyme AAC(3)-3
[4] = system: Staphylococcus epidermidis (Si-2), ANT (4'); assay: MIC, two-fold agar dilution; assay type: cell-based; conditions: 18 h, Table 3, Mueller-Hinton agar, 10^-4 dilution, enzyme ANT (4')
[5] = system: Mycobacterium ranae ATCC 110 (Mr-1); assay: MIC, two-fold agar dilution; assay type: cell-based; conditions: ATCC110, 18 h, Table 3, Mueller-Hinton agar, 10^-4 dilution
[6] = system: Escherichia coli NIHJ (Ec-1); assay: MIC, two-fold agar dilution; assay type: cell-based; conditions: 18 h, Table 3, Mueller-Hinton agar, 10^-4 dilution
[7] = system: Staphylococcus aureus Terajima (Sa-33); assay: MIC, two-fold agar dilution; assay type: cell-based; conditions: 18 h, Table 3, Mueller-Hinton agar, 10^-4 dilution
Proteus rettgeri (Pr-2) = assay: MIC, two-fold agar dilution; assay type: cell-based; conditions: Providencia rettgeri, 18 h; Table 3; Mueller-Hinton agar, 10^-4 dilution
[8] = system: Escherichia coli Juhl (Ec-3); assay: MIC, two-fold agar dilution; assay type: cell-based; conditions: 18 h
Protocol: (§1) The minimum inhibitory concentrations (MIC) of Bu-2349A and B were determined against a wide variety of bacteria by the two-fold agar dilution method. Mueller-Hinton agar medium was generally used for the determination of bacterial MIC except for species of Streptococcus, Neisseria and Hemophilus for which Gonococcus agar medium (GC agar, Nissui Co., Tokyo) was used. Gifu anaerobe agar medium (GAM agar, Eiken Co., Tokyo) was used for anaerobic bacteria. The MIC's were determined after overnight incubation at 37° C. with an initial inoculum equivalent to a 10^-4 dilution of an 18-hour culture for the aerobic and anaerobic bacteria, except for Streptococcus, Neisseria and Hemophilus for which a 10^-2 dilution was used.
(§2) The influence of inoculum size on MIC was tested on Mueller-Hinton agar using an inoculum of […], 10^-2 or 10^-4 dilution of the overnight culture of test organisms.
(§3) The effect of media pH on the MIC's of Bu-2349A was determined at three pH levels (6, 7 and 8) using Mueller-Hinton agar.
(§4) The media effect on the MIC's of Bu-2349A was tested using four kinds of assay media: Mueller-Hinton agar (MHA), nutrient agar (NA), heart infusion agar (HIA) and brain heart infusion agar (BHIA). The pH was adjusted at 7 and a 10^-4 dilution of overnight culture was used for the inoculum.

Proteus mirabilis (Pm-1) = assay: MIC, two-fold agar dilution; assay type: cell-based
Protocol: as §1, §2, §3, §4

Proteus morganii (Pg-1) = assay: MIC, two-fold agar dilution; assay type: cell-based; conditions: Morganella morganii, 18 h
Protocol: as §1, §2, §3, §4

[9] = system: Escherichia coli (Ec-62), AAC(3)- 1; assay: MIC, two-fold agar dilution; assay type: cell-based; conditions: 18 h, Table 3, Mueller-Hinton agar, 10^-4 dilution, enzyme AAC(3)- 1
[10] = system: Serratia marcescens (Sm-2); assay: MIC, two-fold agar dilution; assay type: cell-based; conditions: 18 h, Table 3, Mueller-Hinton agar, 10^-4 dilution
S. pneumoniae A20759 = assay: experimental infections in mice; assay type: in vivo; conditions: im
Protocol: (§5) The in vivo antibacterial activity of Bu-2349A was determined by experimental infections in mice. Mice were challenged via the intraperitoneal route with a 100 X LD50 dose of the pathogens in a 5% suspension of hog gastric mucin (American Laboratories, Omaha, Neb.). Bu-2349A was administered by the intramuscular route immediately after the bacterial challenge.

P. mirabilis A9554 = assay: experimental infections in mice; assay type: in vivo; conditions: Proteus mirabilis, A9554, 120 h, im, 100 X LD50 ip challenge, 5 days, read-out: PD50 (median protective dose)
Protocol: as §5

P. vulgaris A9436 = assay: experimental infections in mice; assay type: in vivo; conditions: Proteus vulgaris, A9436, 120 h, im, 100 X LD50 ip challenge, 5 days, read-out: PD50 (median protective dose)
Protocol: as §5

E. coli Juhl = assay: experimental infections in mice; assay type: in vivo; conditions: Escherichia coli, 120 h, im, 100 X LD50 ip challenge, 5 days, read-out: PD50 (median protective dose)
Protocol: as §5

S. aureus Smith = assay: experimental infections in mice; assay type: in vivo; conditions: Staphylococcus aureus, 120 h, im, 100 X LD50 ip challenge, 5 days, read-out: PD50 (median protective dose)
Protocol: as §5

K. pneumoniae A9977 = assay: experimental infections in mice; assay type: in vivo; conditions: Klebsiella pneumoniae, A9977, 120 h, im, 100 X LD50 ip challenge, 5 days, read-out: PD50 (median protective dose)
Protocol: as §5

[11] = system: Peptococcus aerogenes ATCC 14963 (Pe-101); assay: MIC against anaerobic bacteria; assay type: cell-based; conditions: Peptoniphilus asaccharolyticus, ATCC14963, 18 h; Table 4; GAM Medium, pH 7
[12] = Table 3, Mueller-Hinton agar, 10^-4 dilution
[13] = pH 6, Table 6, Mueller-Hinton Agar, 10^-4 dilution, pH 6
[14] = pH 7, Table 5, Mueller-Hinton Agar, pH 7, inoculum 10^0 dil.
[15] = pH 7, Table 5, Mueller-Hinton Agar, pH 7, inoculum 10^-2 dil.
[16] = pH 7, Table 5, Mueller-Hinton Agar, pH 7, inoculum 10^-4 dil.
[17] = pH 7, Table 6, Mueller-Hinton Agar, 10^-4 dilution, pH 7
[18] = pH 7, Table 7, pH 7, 10^-4 dilution, BHIA
[19] = pH 7, Table 7, pH 7, 10^-4 dilution, HIA
[20] = pH 7, Table 7, pH 7, 10^-4 dilution, MHA
[21] = pH 7, Table 7, pH 7, 10^-4 dilution, NA
[22] = pH 8, Table 6, Mueller-Hinton Agar, 10^-4 dilution, pH 8

Q: What does the source list for C=C1OC(OC2C(CO)OC(Oc3ccc(C(=O)NCCCNCCCCNCCCCN)cc3)C2O)C(O)C(OC2OC(CO)C(OC3OC(C)C(N)C(O)C3NC(=O)C(C)N)C(O)C2O)C1O (stereo not drawn) [Bu-2349A]?
A: MIC [1]: > 100 µg/mL; MIC [2]: > 100 µg/mL; MIC [3]: 3.1 µg/mL (≈ 3.13 µM); MIC [4]: 3.1 µg/mL (≈ 3.13 µM); MIC [5]: 3.1 µg/mL (≈ 3.13 µM); MIC [6]: 1.6 µg/mL (≈ 1.62 µM); MIC [7]: 1.6 µg/mL (≈ 1.62 µM); MIC (Proteus rettgeri (Pr-2)): 0.8 µg/mL (≈ 0.808 µM); MIC [8, 12]: 1.6 µg/mL (≈ 1.62 µM); MIC [8, 13]: 25 µg/mL (≈ 25.2 µM); MIC [8, 14]: 6.3 µg/mL (≈ 6.36 µM); MIC [8, 15]: 3.1 µg/mL (≈ 3.13 µM); MIC [8, 16]: 3.1 µg/mL (≈ 3.13 µM); MIC [8, 17]: 3.1 µg/mL (≈ 3.13 µM); MIC [8, 18]: 6.3 µg/mL (≈ 6.36 µM); MIC [8, 19]: 1.6 µg/mL (≈ 1.62 µM); MIC [8, 20]: 3.1 µg/mL (≈ 3.13 µM); MIC [8, 21]: 3.1 µg/mL (≈ 3.13 µM); MIC [8, 22]: 1.6 µg/mL (≈ 1.62 µM); MIC (Proteus mirabilis (Pm-1); Proteus mirabilis, 18 h, Table 3, Mueller-Hinton agar, 10^-4 dilution, read-out: MIC): 6.3 µg/mL (≈ 6.36 µM); MIC (Proteus mirabilis (Pm-1); Proteus mirabilis, 18 h, pH 6, Table 6, Mueller-Hinton Agar, 10^-4 dilution, pH 6, read-out: MIC): > 50 µg/mL; MIC (Proteus mirabilis (Pm-1); Proteus mirabilis, 18 h, pH 7): 12.5 µg/mL (≈ 12.6 µM); MIC (Proteus mirabilis (Pm-1); Proteus mirabilis, 18 h, pH 7, Table 5, Mueller-Hinton Agar, pH 7, inoculum 10^0 dil., read-out: MIC): 50 µg/mL (≈ 50.5 µM); MIC (Proteus mirabilis (Pm-1); Proteus mirabilis, 18 h, pH 7, Table 5, Mueller-Hinton Agar, pH 7, inoculum 10^-2 dil., read-out: MIC): 25 µg/mL (≈ 25.2 µM); MIC (Proteus mirabilis (Pm-1); Proteus mirabilis, 18 h, pH 7, Table 7, pH 7, 10^-4 dilution, HIA, read-out: MIC): 6.3 µg/mL (≈ 6.36 µM); MIC (Proteus mirabilis (Pm-1); Proteus mirabilis, 18 h, pH 7, Table 7, pH 7, 10^-4 dilution, MHA, read-out: MIC): 6.3 µg/mL (≈ 6.36 µM); MIC (Proteus mirabilis (Pm-1); Proteus mirabilis, 18 h, pH 7, Table 7, pH 7, 10^-4 dilution, NA, read-out: MIC): 3.1 µg/mL (≈ 3.13 µM); MIC (Proteus mirabilis (Pm-1); Proteus mirabilis, 18 h, pH 8): 12.5 µg/mL (≈ 12.6 µM); MIC (Proteus mirabilis (Pm-1); Table 6, Mueller-Hinton Agar, 10^-4 dilution, pH 7): 12.5 µg/mL (≈ 12.6 µM); MIC (Proteus mirabilis (Pm-1); Table 7, pH 7, 10^-4 dilution, BHIA): 12.5 µg/mL (≈ 12.6 µM); MIC (Proteus morganii (Pg-1); [12]): 25 µg/mL (≈ 25.2 µM); MIC (Proteus morganii (Pg-1); [13]): > 50 µg/mL; MIC (Proteus morganii (Pg-1); [14]): > 50 µg/mL; MIC (Proteus morganii (Pg-1); [15]): 50 µg/mL (≈ 50.5 µM); MIC (Proteus morganii (Pg-1); [16]): 25 µg/mL (≈ 25.2 µM); MIC (Proteus morganii (Pg-1); [17]): 25 µg/mL (≈ 25.2 µM); MIC (Proteus morganii (Pg-1); [18]): 25 µg/mL (≈ 25.2 µM); MIC (Proteus morganii (Pg-1); [19]): 25 µg/mL (≈ 25.2 µM); MIC (Proteus morganii (Pg-1); [20]): 25 µg/mL (≈ 25.2 µM); MIC (Proteus morganii (Pg-1); [21]): 6.3 µg/mL (≈ 6.36 µM); MIC (Proteus morganii (Pg-1); [22]): 25 µg/mL (≈ 25.2 µM); MIC [9]: 1.6 µg/mL (≈ 1.62 µM); MIC [10]: 25 µg/mL (≈ 25.2 µM); ED50 (S. pneumoniae A20759; Streptococcus pneumoniae, A20759, 120 h, 100 X LD50 ip challenge, 5 days, read-out: PD50 (median protective dose)): > 100 mg/kg; activity against the S. pneumoniae infection (S. pneumoniae A20759): inactive; ED50 (P. mirabilis A9554): 16 mg/kg; ED50 (P. vulgaris A9436): 12 mg/kg; ED50 (E. coli Juhl): 5.4 mg/kg; ED50 (S. aureus Smith): 3.2 mg/kg; ED50 (K. pneumoniae A9977): 7.2 mg/kg; MIC [11]: > 100 µg/mL
